Reference: US20080261933A1, “COMBINATION OF PROGESTERONE-RECEPTOR ANTAGONIST TOGETHER WITH A LUTEIN-HORMONE-RELEASING HORMONE AGONIST AND ANTAGONIST FOR USE IN BRCA MEDIATED DISEASES” (priority 2007, published 2008)

Legend:
progesterone receptor [1] = molecular target: T1, progesterone receptor (Homo sapiens, UniProt P06401); assay: Endocrinological profile of the progesterone-receptor antagonist
T1 sequence (P06401 1-933): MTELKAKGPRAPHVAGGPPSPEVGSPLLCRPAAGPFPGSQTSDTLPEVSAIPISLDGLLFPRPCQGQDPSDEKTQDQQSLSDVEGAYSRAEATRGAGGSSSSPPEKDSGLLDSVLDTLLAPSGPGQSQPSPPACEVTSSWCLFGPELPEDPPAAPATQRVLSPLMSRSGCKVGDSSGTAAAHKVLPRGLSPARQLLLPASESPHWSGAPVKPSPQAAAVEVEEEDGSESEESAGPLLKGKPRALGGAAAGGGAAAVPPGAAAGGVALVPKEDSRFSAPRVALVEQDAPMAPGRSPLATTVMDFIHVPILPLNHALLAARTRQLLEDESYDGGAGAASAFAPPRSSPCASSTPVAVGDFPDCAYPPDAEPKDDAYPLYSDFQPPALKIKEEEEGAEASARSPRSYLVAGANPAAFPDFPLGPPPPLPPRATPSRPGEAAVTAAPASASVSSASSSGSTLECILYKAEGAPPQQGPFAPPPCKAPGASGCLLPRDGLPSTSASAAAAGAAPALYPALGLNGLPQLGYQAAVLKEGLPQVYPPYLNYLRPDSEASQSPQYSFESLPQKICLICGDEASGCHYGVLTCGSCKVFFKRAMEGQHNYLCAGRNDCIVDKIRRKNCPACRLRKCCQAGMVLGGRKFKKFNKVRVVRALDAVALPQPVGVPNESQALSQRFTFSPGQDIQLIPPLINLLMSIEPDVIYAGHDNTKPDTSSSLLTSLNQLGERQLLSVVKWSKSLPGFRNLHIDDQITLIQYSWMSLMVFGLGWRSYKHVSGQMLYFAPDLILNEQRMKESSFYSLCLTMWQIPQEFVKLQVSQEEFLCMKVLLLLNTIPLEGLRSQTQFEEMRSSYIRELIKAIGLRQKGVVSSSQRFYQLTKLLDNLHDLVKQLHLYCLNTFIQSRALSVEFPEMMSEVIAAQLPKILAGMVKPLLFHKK
Text: has high antiprogestagenic activity with little or no other endocrinological effects (Fuhrmann, U. et al., J. Med. Chem. 2000, 43, 5010-5016).

progesterone receptor [2] = molecular target: T1, progesterone receptor; details: Fuhrmann et al., J. Med. Chem. 2000; cited from earlier work
tumor cells = assay: Apoptosis of tumor cells
Text: Such other hormone-dependent diseases may include ovarian cancer, endometrial cancer, myeloma, myoma, lung cancer, meningioma, i.e., diseases which substantially originate or are influenced by the presence of hormone receptors and/or hormone-dependent pathways.

[3] = oral; cited from earlier work
[4] = system: mammary tumors in Brca1/p53-deficient mice; details: mice with BRCA1- or BRCA2 inactivated in mammary glands; cited from earlier work
glucocorticoid = details: causes severe side effects; cited from earlier work

Row | Structure (SMILES) | endocrine side effects such as androgen, estrogen or antiglucocorticoid activity (progesterone receptor [1]) | antiprogestagenic activity (progesterone receptor [2]) | other endocrinological effects (progesterone receptor [2]) | apoptosis of tumor cells (tumor cells) | bioavailability when administered orally [3] | development of mammary tumors [4] | anti-glucocorticoid activity (glucocorticoid)
1 | CC(=O)c1ccc([C@H]2C[C@@]3(C)[C@@H](CC[C@@]3(O)C(F)(F)C(F)(F)F)[C@@H]3CCC4=CC(=O)CCC4=C32)cc1 [ZK230211, 11β-(4-acetylphenyl)-17β-hydroxy-17α-(1,1,2,2,2-pentafluoroethyl)-estra-4,9-dien-3-one] | only very weak or no | high | little or no | increased apoptosis | – | – | –
2 | CC#C[C@]1(O)CC[C@H]2[C@@H]3CCC4=CC(=O)CCC4=C3[C@@H](c3ccc(N(C)C)cc3)C[C@@]21C [mifepristone] | – | – | – | – | poor | blocks the development of mammary tumors | strong
